Source: the supplement of paper PMC10307832

Key:
Assay in all cases: relative viability (nuclei count vs DMSO), 5 days (fraction); higher = more cells survive
Gemcitabine + Vorinostat = compound: Nc1ccn([C@@H]2O[C@H](CO)[C@@H](O)C2(F)F)c(=O)n1 [Gemcitabine] + O=C(CCCCCCC(=O)Nc1ccccc1)NO [Vorinostat] (partner 1 µM)
Outline: (§1)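 For relative viability, nuclei counts in treated wells were divided by those in vehicle wells. Lung cancer cell lines had been pin-tool dosed in 1536-well plates the day after seeding and cultured for 5 days, then fixed and stained in one step (final 0.05% Triton X-100, 1% formaldehyde, 1 ug/ml Hoechst) and imaged at 4×. Doses were one drug alone or a fixed anchor-drug dose plus five library-drug doses (not always all listed) in √10 steps, and values are duplicate-plate medians.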

Gemcitabine + Foretinib = compound: Nc1ccn([C@@H]2O[C@H](CO)[C@@H](O)C2(F)F)c(=O)n1 [Gemcitabine] + COc1cc2c(Oc3ccc(NC(=O)C4(C(=O)Nc5ccc(F)cc5)CC4)cc3F)ccnc2cc1OCCCN1CCOCC1 [Foretinib] (partner 0.25 µM)
Outline: as §1

Gemcitabine + Pictilisib = compound: Nc1ccn([C@@H]2O[C@H](CO)[C@@H](O)C2(F)F)c(=O)n1 [Gemcitabine] + CS(=O)(=O)N1CCN(Cc2cc3nc(-c4cccc5[nH]ncc45)nc(N4CCOCC4)c3s2)CC1 [Pictilisib] (partner 1 µM)
Outline: as §1

Gemcitabine + AZD7762 = compound: Nc1ccn([C@@H]2O[C@H](CO)[C@@H](O)C2(F)F)c(=O)n1 [Gemcitabine] + NC(=O)Nc1cc(-c2cccc(F)c2)sc1C(=O)N[C@H]1CCCNC1 [AZD7762] (partner 0.2 µM)
Outline: as §1

Cell Line	relative viability (Gemcitabine + Vorinostat; first compound 0.001 µM)	relative viability (Gemcitabine + Vorinostat; first compound 0.003162 µM)	relative viability (Gemcitabine + Vorinostat; first compound 0.01 µM)	relative viability (Gemcitabine + Vorinostat; first compound 0.03162 µM)	relative viability (Gemcitabine + Vorinostat; first compound 0.1 µM)	relative viability (Gemcitabine + Foretinib; first compound 0.001 µM)	relative viability (Gemcitabine + Foretinib; first compound 0.003162 µM)	relative viability (Gemcitabine + Foretinib; first compound 0.01 µM)	relative viability (Gemcitabine + Foretinib; first compound 0.03162 µM)	relative viability (Gemcitabine + Foretinib; first compound 0.1 µM)	relative viability (Gemcitabine + Pictilisib; first compound 0.001 µM)	relative viability (Gemcitabine + Pictilisib; first compound 0.003162 µM)	relative viability (Gemcitabine + Pictilisib; first compound 0.01 µM)	relative viability (Gemcitabine + Pictilisib; first compound 0.03162 µM)	relative viability (Gemcitabine + Pictilisib; first compound 0.1 µM)	relative viability (Gemcitabine + AZD7762; first compound 0.001 µM)	relative viability (Gemcitabine + AZD7762; first compound 0.003162 µM)	relative viability (Gemcitabine + AZD7762; first compound 0.01 µM)	relative viability (Gemcitabine + AZD7762; first compound 0.03162 µM)	relative viability (Gemcitabine + AZD7762; first compound 0.1 µM)
NCI-H2228	0.429	0.374	0.226	0.0768	0.217	0.913	0.536	0.198	0.183	0.0975	0.375	0.417	0.294	0.236	0.123	–	–	–	–	–
NCI-H2087	0.862	0.174	0.304	0.0713	0.109	1.14	0.708	0.245	0.164	0.111	0.73	0.662	0.386	0.193	0.199	1.1	0.145	0.144	0.111	0.104
LU99A	0.509	0.577	0.502	0.523	0.531	0.856	0.791	0.858	0.819	0.812	0.33	0.31	0.313	0.369	0.333	0.437	0.41	0.332	0.367	0.299
NCI-H1355	0.632	0.473	0.274	0.166	0.146	0.858	0.7	0.247	0.2	0.187	0.409	0.343	0.202	0.127	0.124	0.434	0.196	0.112	0.163	0.132
NCI-H520	0.728	0.81	0.336	0.211	0.157	0.887	0.684	0.286	0.199	0.153	0.333	0.321	0.254	0.199	0.161	–	–	–	–	–
NCI-H661	0.766	0.725	0.598	0.303	0.234	1.04	0.871	0.956	0.341	0.218	0.352	0.388	0.288	0.224	0.242	–	–	–	–	–
NCI-H650	0.38	0.25	0.15	0.121	0.111	0.998	0.648	0.197	0.175	0.175	0.918	0.502	0.246	0.166	0.166	0.359	0.172	0.204	0.186	0.161
NCI-H647	0.435	0.129	0.0559	0.0673	0.0443	1.06	0.279	0.0991	0.0846	0.0592	0.304	0.163	0.0953	0.0685	0.0658	0.098	0.0427	0.0235	0.0216	0.0238
SW 1573	0.75	0.591	0.122	0.0661	0.0393	1.03	0.776	0.32	0.131	0.0835	0.543	0.272	0.178	0.086	0.0746	–	–	–	–	–
COR-L23	0.486	0.347	0.092	0.0851	0.1	0.972	0.898	0.556	0.123	0.0959	0.686	0.942	0.39	0.148	0.0795	–	–	–	–	–
SK-LU-1	0.753	0.339	0.267	0.251	0.252	0.728	0.441	0.217	0.168	0.164	0.6	0.537	0.213	0.172	0.192	–	–	–	–	–
NCI-H1650	0.55	0.33	0.34	0.21	0.127	1.28	0.666	0.374	0.179	0.145	0.524	0.466	0.267	0.181	0.144	–	–	–	–	–
UMC-11	0.339	0.505	0.425	0.256	0.152	1.17	1.1	0.948	0.764	0.391	0.942	0.908	0.821	0.714	0.228	–	–	–	–	–
SK-MES-1	0.839	0.254	0.181	0.185	0.178	0.987	0.646	0.319	0.191	0.201	0.333	0.254	0.164	0.136	0.149	–	–	–	–	–
NCI-H2009	0.604	0.552	0.289	0.115	0.0881	1.26	0.938	0.404	0.185	0.153	0.872	0.419	0.157	0.128	0.101	–	–	–	–	–
NCI-H2023	0.773	0.388	0.259	0.0711	0.061	0.966	0.643	0.586	0.124	0.0582	0.248	0.266	0.143	0.106	0.0734	–	–	–	–	–
COR-L 105	0.82	0.726	0.56	0.336	0.27	1.39	0.884	1.01	0.371	0.27	0.43	0.377	0.364	0.27	0.269	–	–	–	–	–
NCI-H1563	–	–	–	–	–	0.948	0.916	0.706	0.566	0.526	0.599	0.669	0.652	0.634	0.506	–	–	–	–	–
EBC-1	–	–	–	–	–	0.0943	0.0886	0.0845	0.0844	0.0813	0.355	0.237	0.15	0.151	0.143	–	–	–	–	–
Calu-6	–	–	–	–	–	0.847	0.566	0.403	0.0993	0.0677	0.994	0.705	0.223	0.162	0.108	–	–	–	–	–
HCC-44	1.1	1.13	1.04	0.651	0.418	–	–	–	–	–	0.58	0.568	0.593	0.392	0.234	0.971	1.03	0.942	0.226	0.271
